Measured values from PubChem BioAssay AID720495 (Broad Institute, 2013).
Records with an inconclusive call do not appear. Active and inactive are the calls of the source. No rule for the calls is given here.

Target: Protein AF-9 (Homo sapiens) (UniProt P42568)
Test: inhibitors of AF4-AF9 protein interaction, dose response, biochemical, cherry-picked samples, plate reader (AID 720495)
Details: biochemical protein-protein interaction assay

Chain of Protein AF-9 (Homo sapiens) (P42568 whole entry, looked up): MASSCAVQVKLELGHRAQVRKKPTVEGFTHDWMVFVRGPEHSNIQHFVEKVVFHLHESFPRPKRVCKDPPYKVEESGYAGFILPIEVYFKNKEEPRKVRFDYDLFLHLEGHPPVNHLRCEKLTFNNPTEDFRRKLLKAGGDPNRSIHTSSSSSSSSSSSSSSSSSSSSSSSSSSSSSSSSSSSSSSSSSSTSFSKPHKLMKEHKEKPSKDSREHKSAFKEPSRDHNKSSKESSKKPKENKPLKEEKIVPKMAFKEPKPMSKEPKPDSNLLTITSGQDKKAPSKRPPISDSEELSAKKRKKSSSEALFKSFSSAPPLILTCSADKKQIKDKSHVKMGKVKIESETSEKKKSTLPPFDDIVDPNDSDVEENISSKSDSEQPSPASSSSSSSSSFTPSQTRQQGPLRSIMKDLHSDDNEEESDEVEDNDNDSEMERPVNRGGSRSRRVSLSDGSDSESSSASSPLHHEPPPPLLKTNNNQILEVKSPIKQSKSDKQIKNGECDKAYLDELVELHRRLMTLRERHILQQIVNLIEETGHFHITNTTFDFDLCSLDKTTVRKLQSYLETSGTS

Row | SMILES | AC50
1 | CC(C)(c1ccccc1)c1ccc(OCC(O)CNC2CCN(Cc3ccccc3)CC2)cc1 (stereo not drawn) | 0.841 µM
2 | COC1=C(Nc2ccc(O)cc2)C(=O)c2ccccc2C1=O | 9.8 µM
3 | CN(C)c1ccc(C=c2c3cc(O)ccc3n3c2cc(-c2ccccc2)[n+]3C)cc1 | 0.975 µM
4 | Cc1ccc2nc(-c3ccc(NC(=S)NC4CC(C)(C)NC(C)(C)C4)cc3)sc2c1 | 7.34 µM
5 | CC1C(=NO)C(C)C(c2ccc(N(C)C)cc2)NC1c1ccc(N(C)C)cc1 (stereo not drawn) | 10.4 µM
6 | CN(C(=O)c1ccc(NC(=O)Cc2ccc(NC(=O)C3CCN(C(=O)c4ccccc4)CC3)cc2)cc1)C1CC1 | 0.233 µM
7 | CCN(CCCl)c1cc(CN(C)C)cc(NC(=O)c2ccc(C(=O)Nc3cc(CN(C)C)cc(N(CC)CCCl)c3)cc2)c1 | 0.683 µM
8 | CCc1nc2ccc(C(=O)NC3CCN(Cc4ccccc4)CC3)cn2c1N(C)Cc1ccc(N(C)C)cc1 | 5.52 µM
9 | CC1NC(=O)NC1CCCCCC(=O)Nc1ccc(F)cc1 (stereo not drawn) | < 0.08 µM
10 | CCSc1ccc(-c2cc(NC=O)c3ncc(-c4cccc(C(=O)NCCN(C)C)c4)n3c2)cc1 | 0.798 µM
11 | CCN1CCN(c2ccc(N)cc2)CC1 | 1.54 µM
12 | COc1cc(OC)c2c(-c3ccccc3)cc(=O)oc2c1C(CCN1CCCC(C)C1)c1ccc(N(C)C)cc1 (stereo not drawn) | 0.943 µM
13 | CC(C)Nc1ccc(Nc2ccccc2)cc1 | 10.9 µM
14 | CCN(CC)CCOc1ccc(/C(=C(/Cl)c2ccccc2)c2ccccc2)cc1 | 0.529 µM
15 | N#C/C(C(N)=O)=c1/ccc2c(c1)N1C3=C(CCCC3)CC3CCCCC31N=2 (stereo not drawn) | 0.767 µM
16 | COC1=C(Nc2ccccc2OC)C(=O)c2ccccc2C1=O | 3.9 µM
17 | CCC(=O)N1CC2(CCN(Cc3ccc(Cl)cc3)CC2)c2c([nH]c3cc(OC)ccc23)[C@H]1CO | 10.4 µM
18 | CCN(CC)CCC(c1ccc(N(C)C)cc1)c1c(OC)cc(OC)c2c(-c3ccccc3)cc(=O)oc12 (stereo not drawn) | 3.97 µM
19 | CN(C)c1ccc(CNCCC(Cc2ccccc2)c2ccco2)cc1 (stereo not drawn) | 5.44 µM
20 | CC(=O)OCCNc1cc(N2CCN(C)CC2)c2noc3c2c1C(=O)c1ccccc1-3 | 1.94 µM
21 | COc1ccc(NC2=C(NCCO)C(=O)c3ccccc3C2=O)cc1 | 4.37 µM

Same assay, conditions: biochemical protein-protein interaction assay, at 10 µM (top of the series)

Row | SMILES | activity change, negative = inhibition
22 | COc1cccc(-c2ccc3c(c2)[C@H]2[C@H](CCN2C(=O)C2CCCCC2)[C@@H](CO)N3)c1 | inactive
23 | O=C(NN1C(=O)/C(=C/c2ccc(O)c(O)c2)SC1=S)c1ccccc1 | inactive
24 | Cc1ccsc1/C=N/N1CCN(Cc2ccccc2)CC1 | inactive
25 | COc1ccc(/C=N/N2CCN(c3ccccc3OC)CC2)cc1Br | inactive
26 | Oc1ccccc1C=NCCCCCCN=Cc1ccccc1O | inactive
27 | COc1ccc(N2CCN(CCCNC(=O)C(=O)c3c(C)n(C)c4ccccc34)CC2)cc1 | inactive
28 | Cn1ccc2c(N3CCCCC3)cc3c(c21)C1CCC3C1 (stereo not drawn) | inactive
29 | Cn1c(SCC(=O)N2c3ccccc3Sc3ccc(Cl)cc32)nnc1-c1ccco1 | inactive
30 | CC(C)N1C(=O)/C(=C\c2nc3ccccc3c(=O)[nH]2)c2ccccc21 | inactive
31 | Cc1cc2c(OCC(O)CNC3CCCCC3)cccc2[nH]1 (stereo not drawn) | inactive
32 | S=C(NN=C(c1ccccc1)c1ccccn1)N(Cc1ccccn1)Cc1ccccn1 | inactive
33 | Oc1c(C(c2ccc(Cl)cc2)N2CCCC2)cc(Cl)c2cccnc12 (stereo not drawn) | inactive
34 | COc1ccc(CCNCc2cc(C)n(-c3ccc(OC)cc3)c2C)cc1 | inactive
35 | C[C@@H]1ON(C)[C@H]2C[C@H]3c4[nH]c5ccc(-c6ccc7c(c6)OCO7)cc5c4CCN3C[C@@H]12 | inactive
36 | CN(C)c1ccc(C(CN)c2c[nH]c3ccccc23)cc1 (stereo not drawn) | inactive
37 | COc1ccccc1N1CCN(/N=C/C=C\c2ccccc2[N+](=O)[O-])CC1 | inactive
38 | CCN1CCCc2cc(CN(CCN3CCOCC3)C(=S)Nc3cccc(C)c3)ccc21 | inactive
